Molecules are shown by their SMILES. In brackets after ≈: the same amount, converted by molar mass.

Series [1] has as its target Cathepsin S (Homo sapiens, UniProt P25774). Nature of the series: Inhibitory concentration against human cathepsin S by fluorescence assay using 10 uM Cbz-Val-Val-Arg-AMC.
Series [2] concerns the target T1, Pro-cathepsin H (Homo sapiens, UniProt P09668).
T1 sequence (P09668 whole entry): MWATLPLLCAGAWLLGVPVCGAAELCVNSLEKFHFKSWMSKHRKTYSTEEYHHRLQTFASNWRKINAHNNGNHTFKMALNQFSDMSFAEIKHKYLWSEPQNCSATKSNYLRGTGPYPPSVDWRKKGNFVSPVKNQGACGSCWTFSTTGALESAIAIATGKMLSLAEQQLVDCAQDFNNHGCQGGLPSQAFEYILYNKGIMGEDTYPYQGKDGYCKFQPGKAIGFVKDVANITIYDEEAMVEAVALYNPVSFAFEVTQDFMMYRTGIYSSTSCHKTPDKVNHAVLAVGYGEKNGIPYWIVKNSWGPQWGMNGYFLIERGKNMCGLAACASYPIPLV
Nature of the series: Inhibitory concentration against human cathepsin H by fluorescence assay using 50 uM L-Arg-b-naphthalamide.

The target of series [3] is T2, Cathepsin K (Homo sapiens, UniProt P43235).
T2 sequence (P43235 whole entry): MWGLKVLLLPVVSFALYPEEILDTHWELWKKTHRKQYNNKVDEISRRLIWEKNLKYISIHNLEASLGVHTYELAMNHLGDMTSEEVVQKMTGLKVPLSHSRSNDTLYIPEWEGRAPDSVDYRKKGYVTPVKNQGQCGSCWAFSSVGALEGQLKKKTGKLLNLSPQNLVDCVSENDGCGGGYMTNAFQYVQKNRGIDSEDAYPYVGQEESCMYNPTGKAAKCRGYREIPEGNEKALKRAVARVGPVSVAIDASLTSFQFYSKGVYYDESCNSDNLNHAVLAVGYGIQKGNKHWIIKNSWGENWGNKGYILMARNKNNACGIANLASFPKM
Nature of the series: Inhibitory concentration against human cathepsin K.

A short description of series [4]: Oral bioavailability in rat (dose 5 mg/kg p.o.). The following applies: in vivo.
Series [5] addresses Cathepsin B (Homo sapiens, UniProt P07858). Nature of the series: Inhibitory concentration against human cathepsin B by fluorescence assay using 10 uM Cbz-Phe-Arg-AMC.
Series [6] is described as follows: Half-life after intravenous administration of […] mg/kg in rats was determined. The following applies: rat, in vivo, 2.5 mg/kg. The class given is ADME, organism-based.
Series [7] is described as follows: Equilibrium solubility in fasted state-simulated intestinal fluid at pH 6.8 was determined. The class given is ADME.
The nature of series [8]: Total clearance after intravenous administration of […] mg/kg in rats was determined. The class given is ADME, organism-based. The following applies: rat, in vivo, 2.5 mg/kg, read-out: C1.
Series [9] concerns the target Procathepsin L (Homo sapiens, UniProt P07711). Nature of the series: Inhibitory concentration against human cathepsin L by fluorescence assay using 5 uM Cbz-Phe-Arg-AMC.
For series [10], the target named is T3, Cathepsin L2 (Homo sapiens, UniProt O60911).
T3 sequence (O60911 whole entry): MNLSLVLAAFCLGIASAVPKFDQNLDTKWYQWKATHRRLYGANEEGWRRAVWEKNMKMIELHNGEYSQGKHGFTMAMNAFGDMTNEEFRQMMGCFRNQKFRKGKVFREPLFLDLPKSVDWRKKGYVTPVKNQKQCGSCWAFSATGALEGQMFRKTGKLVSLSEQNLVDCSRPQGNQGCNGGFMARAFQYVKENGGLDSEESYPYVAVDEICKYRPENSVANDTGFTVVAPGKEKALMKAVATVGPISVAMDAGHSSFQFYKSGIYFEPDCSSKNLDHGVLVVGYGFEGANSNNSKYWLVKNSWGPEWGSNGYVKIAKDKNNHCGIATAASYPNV
Nature of the series: Inhibitory concentration against human cathepsin V by fluorescence assay using 2 uM Cbz-Phe-Arg-AMC.

Series [11] can be described thus: Steady state volume of distribution after intravenous administration of 2.5 mg/kg in rats was determined. The class given is ADME, organism-based. Set-up: dose 2.5 mg/kg, route intravenous. To be noted: rat, in vivo, read-out: Vss.
The nature of series [12]: solubility in fasted state stimulated intestinal fluid (pH6.8). The format is ADME. To be noted: rat, fasted state simulated intestinal fluid, pH 6.8.

Chain of Procathepsin L (P07711 whole entry): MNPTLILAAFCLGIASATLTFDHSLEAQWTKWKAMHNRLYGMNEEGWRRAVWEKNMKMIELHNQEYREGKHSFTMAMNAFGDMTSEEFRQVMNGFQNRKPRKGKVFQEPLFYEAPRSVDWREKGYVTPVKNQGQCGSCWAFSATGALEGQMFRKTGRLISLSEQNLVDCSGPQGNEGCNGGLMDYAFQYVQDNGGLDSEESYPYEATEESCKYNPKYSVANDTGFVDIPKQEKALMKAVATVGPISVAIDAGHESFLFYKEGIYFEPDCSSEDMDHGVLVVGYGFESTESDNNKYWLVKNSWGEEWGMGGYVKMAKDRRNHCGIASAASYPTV
Chain of Cathepsin S (P25774 whole entry): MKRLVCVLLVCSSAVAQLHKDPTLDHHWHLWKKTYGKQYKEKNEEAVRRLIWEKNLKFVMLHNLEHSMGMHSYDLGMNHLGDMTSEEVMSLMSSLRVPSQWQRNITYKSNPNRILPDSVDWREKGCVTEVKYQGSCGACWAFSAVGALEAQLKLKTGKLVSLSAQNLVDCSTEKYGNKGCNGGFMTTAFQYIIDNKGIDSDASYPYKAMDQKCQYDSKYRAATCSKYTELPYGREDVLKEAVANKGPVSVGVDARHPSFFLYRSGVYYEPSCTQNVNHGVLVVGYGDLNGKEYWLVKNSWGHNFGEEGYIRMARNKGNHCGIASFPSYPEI

In the case of `CCCC[C@H](NC(=O)O[C@@H]1C(=O)NCC1(C)C)C(=O)C(=O)N[C@H](C)c1ccccc1`, the IC50 in [1] is 0.018 µM; in series [2], above 13 µM; in series [3], 0.0025 µM; in series [5], 1.4 µM; in series [9], 0.15 µM; in series [10], 0.029 µM. The bioavailability in [4] was 25%. In [6], this compound showed a half-life of 62 min. In addition, the solubility (thermodynamic) in series [7] was 800 µg/mL (≈ 1920 µM). Besides, in [8], the clearance is 48 mL/min/kg. Further, the Vd in series [11] stood at 1.3 L/kg.

Turning to `CCCC[C@H](NC(=O)O[C@@H]1C[C@H](C)C[C@H](C)C1)C(=O)C(=O)N[C@H](C)c1ccccc1`, the IC50 is 0.063 µM in series [1]; above 13 µM in [2]; 0.35 µM in series [3]; above 13 µM in series [5]; 4.4 µM in [9]; 2.8 µM in series [10].

With `CCCC[C@H](NC(=O)O[C@H]1CCCc2ccccc21)C(=O)C(=O)N[C@H](C)c1ccccc1`, the IC50 was 0.079 µM in series [1]; above 2 µM in [2]; 0.032 µM in series [3]; above 2 µM in [5]; 0.66 µM in series [9]; 0.34 µM in series [10].

For `CCCC[C@H](NC(=O)OC1C[C@H](C)C[C@@H](C)C1)C(=O)C(=O)N[C@H](C)c1ccccc1` (some centres undefined), the IC50 was 0.29 µM in [1]; above 13 µM in series [2]; 0.19 µM in series [3]; above 13 µM in series [5]; 6.8 µM in series [9]; 2 µM in [10].

For `CCCC[C@H](NC(=O)O[C@@H]1C(=O)OCC1(C)C)C(=O)C(=O)N[C@H](C)c1ccccc1`, the IC50 was 0.013 µM in [1]; above 0.5 µM in series [2]; 0.003 µM in series [3]; above 0.5 µM in [5]; 0.41 µM in series [9]; 0.079 µM in series [10]. Further, in [4], the bioavailability worked out at 0%. The compound further showed a solubility in series [12] of 240 µg/mL (≈ 573 µM). Further, the half-life in series [6] was determined as 11 min. Also, the clearance in series [8] is 460 mL/min/kg. For the same compound, the Vd in series [11] worked out at 3.4 L/kg.

Take `CCCC[C@H](NC(=O)OC1CC2CCC1C2)C(=O)C(=O)N[C@H](C)c1ccccc1` (some centres undefined): the IC50 in series [1] is 0.019 µM; in [2], above 13 µM; in series [3], 0.026 µM; in series [5], above 13 µM; in series [9], 1 µM; in series [10], 0.19 µM.

Turning to `CCCC[C@H](NC(=O)OC1C2(C)CCC(C2)C1(C)C)C(=O)C(=O)N[C@H](C)c1ccccc1` (some centres undefined), the IC50 in series [1] is 0.03 µM; in series [2] it was above 13 µM; in series [3] it was 0.0057 µM; in series [5], 12 µM; in [9], 1.7 µM; in [10] it was 0.18 µM.

In the case of `CCCC[C@H](NC(=O)OC1C2CC3CC(C2)CC1C3)C(=O)C(=O)N[C@H](C)c1ccccc1` (some centres undefined), the IC50 in series [1] is 0.016 µM; in series [2] it was above 5 µM; in [3] it was 0.0072 µM; in series [5], above 5 µM; in [9] it was 2.6 µM; in series [10], 0.39 µM.

As to `CCCC[C@H](NC(=O)O[C@H]1CCc2ccccc21)C(=O)C(=O)N[C@H](C)c1ccccc1`, the IC50 is 0.28 µM in series [1]; above 13 µM in [2]; 0.1 µM in series [3]; above 13 µM in [5]; 0.46 µM in [9]; 0.29 µM in series [10].

In general, IC50 refers to the concentration that inhibits the measured activity by half. The low end stands for greater potency, the high end for weaker potency. In general, bioavailability refers to the share of a dose that reaches the circulation, judged against a reference dose that is usually intravenous. A high value points to much systemic uptake. What is called half-life is the time in which the quantity being followed falls by half. As a reminder, the thermodynamic solubility is solubility found after equilibrating the solid with the medium. One may read the solubility as the dissolved amount per volume that the medium holds. A high value points to much dissolved substance.

(Values after ChEMBL document CHEMBL1143550, “A structural screening approach to ketoamide-based inhibitors of cathepsin K” (Bioorg Med Chem Lett, 2005).)
